# Measured values taken from ChEMBL document CHEMBL1201862, “PubChem BioAssay data set” (2004).
# Calls of active or inactive are those of the source.
# Key:
# Streptokinase A = molecular target: T1, Streptokinase A (Streptococcus pyogenes serotype M1, UniProt P10520); experiment: viability-normalized secreted streptokinase activity reduction – plasminogen activation absorbance, OD405, dose response (AID 1914); format: functional, Streptococcus pyogenes M1 GAS;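 note: secreted streptokinase activity via plasminogen activation per viability signal from cell pellet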
# T1 sequence (P10520 whole entry): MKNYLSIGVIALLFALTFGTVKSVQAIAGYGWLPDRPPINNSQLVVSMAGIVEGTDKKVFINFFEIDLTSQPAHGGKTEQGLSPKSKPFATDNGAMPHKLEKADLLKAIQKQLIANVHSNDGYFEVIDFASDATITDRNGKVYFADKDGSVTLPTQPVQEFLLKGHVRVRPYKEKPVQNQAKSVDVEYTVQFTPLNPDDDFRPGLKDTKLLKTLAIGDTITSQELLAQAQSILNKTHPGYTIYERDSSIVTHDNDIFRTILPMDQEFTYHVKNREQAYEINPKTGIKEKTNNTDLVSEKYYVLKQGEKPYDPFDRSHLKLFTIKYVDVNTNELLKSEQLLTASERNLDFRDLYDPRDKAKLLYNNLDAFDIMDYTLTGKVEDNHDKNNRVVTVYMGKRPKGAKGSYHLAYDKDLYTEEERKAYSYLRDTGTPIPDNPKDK
# [1] = NIH3T3 cell viability loss – ATP luminescence, mouse fibroblasts, counter-screen, dose response (AID 2010); format: functional, cell-based;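 note: cells exposed to compound for about 90 hours before reading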
# [2] = Trypanosoma cruzi growth suppression in host cells – NIH3T3 host cells, beta-gal luminescence, confirmation (AID 2044); format: functional, cell-based;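 note: intracellular parasites grown in NIH/3T3 mouse fibroblasts as host cells; luminescent beta-galactosidase reporter signal from transgenic T. cruzi replicating inside host cells; inhibitors lower the luminescence signal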
# [3] = tested on: Streptococcus sp. 'group A'; experiment: Streptococcus pyogenes SK(-)GAS viability under kanamycin – luminescence, BacTiterGlo, confirmation, counter-screen for streptokinase expression inhibitor project, dose response (AID 1900); format: functional, organism-based
# [4] = molecular target: Serine/threonine-protein phosphatase (Homo sapiens, UniProt Q9BPW0); experiment: Counterscreen for inhibitors of PP1: fluorescence-based biochemical high throughput dose response assay to identify inhibitors of Protein Phosphatase 5 (PP5). [Related pubchem assays: 2034 (Summary (PP5 inhibitors)), 1987 (PP5 inhibitors in singlate), 2235 (PP1 inhibitors in singlate)]
# INS1 = experiment: INS-1E survival protection against cytokine death – cell-based, luminescence, retest, dose response (AID 449756); format: functional; details: Rattus norvegicus;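 note: cell death triggered by IL-1 beta plus TNF-alpha plus IFN-gamma mixture; protective hits raise ATP signal compared with cytokine alone wells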
# [5] = molecular target: Serine/threonine-protein phosphatase PP1-alpha catalytic subunit (Homo sapiens, UniProt P62136); experiment: inhibition of protein phosphatase 1 activity – biochemical, fluorescence, dose response (AID 2403);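 note: phosphatase turnover of OMFP into fluorescent 3-O-methylfluorescein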
# Streptococcus = experiment: GAS UMAA2166 growth inhibition – luminescence, BacTiterGlo, counter-screen for streptokinase expression inhibitor project, dose response (AID 1915); format: functional, organism-based;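 note: potency for reduction of bacterial viability or growth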
# [6] = molecular target: Lysosomal acid glucosylceramidase (Homo sapiens, UniProt P04062); experiment: Dose response cell-based high throughput screening assay to identify enhancers of beta-glucosidase activity. [Related pubchem assays: 784 ]; format: functional
# [7] = molecular target: DNA dC->dU-editing enzyme APOBEC-3G (Homo sapiens, UniProt Q9HC16); experiment: Dose Response confirmation of small molecule APOBEC3G DNA Deaminase Inhibitors via a fluorescence-based single-stranded DNA deaminase assay. [Related pubchem assays (depositor defined):AID493012, AID493028]; format: functional
# [8] = molecular target: DNA dC->dU-editing enzyme APOBEC-3A (Homo sapiens, UniProt P31941); experiment: A3A deaminase inhibition for selectivity – biochemical, dose response (AID 504722); format: functional
# [9] = molecular target: G-protein coupled receptor 55 (Homo sapiens, UniProt Q9Y2T6); experiment: selective activators of receptor GPR55 – imaging, U2OS cells, beta-arrestin-GFP redistribution, primary screen (AID 1961); format: functional
# Cytochrome P450 2D6 = Cytochrome P450 2D6 (Homo sapiens, UniProt P10635); experiment: qHTS Assay for Inhibitors and Substrates of Cytochrome P450 2D6. [Related pubchem assays: 410 ]; format: ADME; details: read-out: Potency
# [10] = molecular target: Voltage-dependent T-type calcium channel subunit alpha-1H (Homo sapiens, UniProt O95180); format: functional;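 note: channel activity triggered by adding a high calcium stimulation buffer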
# H9c2 = experiment: cells; format: functional, cell-based; details: Rattus norvegicus, H9c2, Myocardium;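 note: confirmatory concentration-response retest of ultra-high-throughput screening hits for modulation of myocardial damage; cell death induced by hydrogen peroxide oxidative stress; compound pretreatment for 60 min then peroxide exposure for 2 h; potency is for protecting the cells against peroxide damage rather than for killing them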
# [11] = molecular target: T2, Dual specificity protein phosphatase 6 (Rattus norvegicus, UniProt Q64346)
# T2 sequence (Q64346 whole entry): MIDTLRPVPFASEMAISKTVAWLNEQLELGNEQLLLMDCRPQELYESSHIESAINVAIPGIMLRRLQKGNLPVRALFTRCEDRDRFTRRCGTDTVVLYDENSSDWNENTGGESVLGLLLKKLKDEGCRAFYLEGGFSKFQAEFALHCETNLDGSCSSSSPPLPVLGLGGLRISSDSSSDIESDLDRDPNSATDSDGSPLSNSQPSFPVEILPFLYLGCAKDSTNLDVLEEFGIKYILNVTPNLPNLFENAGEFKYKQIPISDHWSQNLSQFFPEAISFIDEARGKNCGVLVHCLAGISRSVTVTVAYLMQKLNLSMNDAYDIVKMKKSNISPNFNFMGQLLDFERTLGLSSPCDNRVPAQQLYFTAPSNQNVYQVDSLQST
# [12] = molecular target: T3, Tyrosine-protein phosphatase non-receptor type 7 (Homo sapiens, UniProt P35236); format: functional
# T3 sequence (P35236 whole entry): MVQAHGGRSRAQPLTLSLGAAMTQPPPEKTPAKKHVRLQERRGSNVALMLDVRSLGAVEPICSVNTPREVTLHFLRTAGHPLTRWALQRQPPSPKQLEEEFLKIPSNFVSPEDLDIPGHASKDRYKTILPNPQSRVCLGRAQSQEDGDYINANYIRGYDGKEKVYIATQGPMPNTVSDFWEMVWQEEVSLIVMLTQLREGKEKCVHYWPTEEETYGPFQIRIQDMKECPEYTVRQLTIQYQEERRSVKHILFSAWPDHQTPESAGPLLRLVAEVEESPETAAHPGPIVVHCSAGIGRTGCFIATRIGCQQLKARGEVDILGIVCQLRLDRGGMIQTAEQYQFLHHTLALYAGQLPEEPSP
# [13] = molecular target: T2, Dual specificity protein phosphatase 6; format: functional
# [14] = molecular target: Glyceraldehyde-3-phosphate dehydrogenase (Homo sapiens, UniProt P04406)
# Cytochrome P450 2C19 = Cytochrome P450 2C19 (Homo sapiens, UniProt P33261); experiment: qHTS Assay for Inhibitors and Substrates of Cytochrome P450 2C19. [Related pubchem assays: 410 ]; format: ADME; details: read-out: Potency
# Protein Rev = Protein Rev (Human immunodeficiency virus type 1 group M subtype B (isolate HXB2)(HIV-1), UniProt P04618); experiment: blockers of HIV Rev/RRE RNA complex – biochemical, fluorescence polarization, HIV-1, dose response (AID 434976); design: species or system Human immunodeficiency virus 1
# [15] = molecular target: Female germline-specific tumor suppressor gld-1 (Caenorhabditis elegans, UniProt Q17339); experiment: blockers of GLD-1/TGE RNA complex formation – biochemical, fluorescence polarization, C. elegans, dose response (AID 2802);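 note: fluorescence polarization of labeled TGE RNA bound by purified gld-1 protein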
# [16] = molecular target: T4, Polyadenylate-binding protein 1 (Homo sapiens, UniProt P11940); experiment: MLLE domain peptide-binding blockers, IC50 – biochemical, fluorescence polarization, FITC-PAM2 peptide, dose response (AID 602259); format: functional; details: read-out: IC50_Mean
# [17] = molecular target: T4, Polyadenylate-binding protein 1; experiment: MLLE binding blockers, Cy5 peptide tracer – biochemical, fluorescence polarization, Cy5-PAM2 peptide, secondary, miRNA deadenylation inhibitor project, dose response (AID 602260); format: functional; details: read-out: IC50_Mean
# [18] = A cytotoxicity screen of small molecule inhibitors of the PhoP region in Salmonella typhi identified in the primary screen. [Related pubchem assays: 1850, 1864, 1985 ]; format: functional
# [19] = molecular target: T5, RNA-binding protein pos-1 (Caenorhabditis elegans, UniProt G5EF15); experiment: disruptors of C. elegans POS-1 RNA interaction – biochemical, fluorescence polarization, dose response (AID 1964);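 note: purified POS-1 fused to maltose binding protein made in E. coli; potency of compounds blocking POS-1 binding to fluorescent RNA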
# T5 sequence (G5EF15 whole entry): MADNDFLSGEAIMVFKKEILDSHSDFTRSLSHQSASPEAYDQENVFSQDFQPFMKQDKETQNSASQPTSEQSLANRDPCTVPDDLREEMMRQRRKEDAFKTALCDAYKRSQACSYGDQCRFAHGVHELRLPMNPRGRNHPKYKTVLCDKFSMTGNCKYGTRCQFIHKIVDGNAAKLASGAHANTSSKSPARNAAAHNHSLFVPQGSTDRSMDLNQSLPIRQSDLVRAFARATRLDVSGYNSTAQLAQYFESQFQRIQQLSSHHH
# [20] = molecular target: T6, Heat shock factor protein 1 (Mus musculus, UniProt P38532); experiment: decrease of HSF1-responsive luciferase luminescence – cell-based, NIH3T3, dose retest, confirmation (AID 2382); format: functional;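 note: NIH3T3 fibroblasts with HSF1-driven luciferase reporter stressed by proteasome inhibitor MG132; luminescence from HSF1-driven luciferase expression after 8 hours of MG132 stress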
# T6 sequence (P38532 whole entry): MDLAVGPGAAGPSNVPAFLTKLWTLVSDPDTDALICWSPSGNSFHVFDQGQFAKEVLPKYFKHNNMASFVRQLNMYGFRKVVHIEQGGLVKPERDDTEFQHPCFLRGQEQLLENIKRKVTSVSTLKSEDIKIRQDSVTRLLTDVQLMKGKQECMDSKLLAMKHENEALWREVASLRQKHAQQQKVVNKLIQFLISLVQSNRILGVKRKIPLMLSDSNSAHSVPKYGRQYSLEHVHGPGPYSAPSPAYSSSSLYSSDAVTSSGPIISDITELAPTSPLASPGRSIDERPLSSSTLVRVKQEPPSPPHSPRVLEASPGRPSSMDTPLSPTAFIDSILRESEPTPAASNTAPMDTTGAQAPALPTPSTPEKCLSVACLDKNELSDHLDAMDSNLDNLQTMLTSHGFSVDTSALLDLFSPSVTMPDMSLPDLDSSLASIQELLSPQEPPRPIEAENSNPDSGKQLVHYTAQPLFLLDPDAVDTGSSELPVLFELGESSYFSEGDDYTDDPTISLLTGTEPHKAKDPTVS
# cells = format: functional, cell-based
# [21] = alpha-synuclein stem-loop translation blockers – luminescence, H4 neuroglioblastoma cells, dose confirmation, confirmation (AID 2454); format: functional, cell-based;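 note: H4 neuroglioblastoma cells carrying an alpha-synuclein 5'UTR luciferase reporter; potency for inhibition of the luciferase signal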
# [22] = luciferase reporter signal reduction – luminescence, H4-C neuroglioblastoma cells, dose response (AID 2458); format: functional, cell-based;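 note: H4 neuroglioblastoma cells stably carrying a luciferase reporter gene fusion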
# [23] = alpha-synuclein stem-loop luciferase translation blockers – H4 neuroglioma cells, luminescence, confirmation (AID 1988); format: functional, cell-based
# [24] = molecular target: T7, Zinc finger protein mex-5 (Caenorhabditis elegans, UniProt Q9XUB2); experiment: potency of MEX-5 RNA-binding blockers – biochemical, C. elegans, fluorescence polarization, dose response (AID 1960)
# T7 sequence (Q9XUB2 whole entry): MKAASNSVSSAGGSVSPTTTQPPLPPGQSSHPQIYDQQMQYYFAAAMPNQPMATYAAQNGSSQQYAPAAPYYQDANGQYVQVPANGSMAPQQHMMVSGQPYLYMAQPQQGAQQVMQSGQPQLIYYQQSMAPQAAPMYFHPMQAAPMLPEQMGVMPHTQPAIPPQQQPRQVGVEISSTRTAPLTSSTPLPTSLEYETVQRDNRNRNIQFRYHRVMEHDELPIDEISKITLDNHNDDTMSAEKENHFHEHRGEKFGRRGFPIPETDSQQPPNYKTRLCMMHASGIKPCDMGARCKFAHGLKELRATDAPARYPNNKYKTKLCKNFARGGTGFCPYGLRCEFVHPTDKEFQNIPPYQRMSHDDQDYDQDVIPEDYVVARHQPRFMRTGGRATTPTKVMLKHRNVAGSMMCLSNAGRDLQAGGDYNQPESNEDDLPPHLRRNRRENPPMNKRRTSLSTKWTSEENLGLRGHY
# Sequence of Voltage-dependent T-type calcium channel subunit alpha-1H (O95180 whole entry): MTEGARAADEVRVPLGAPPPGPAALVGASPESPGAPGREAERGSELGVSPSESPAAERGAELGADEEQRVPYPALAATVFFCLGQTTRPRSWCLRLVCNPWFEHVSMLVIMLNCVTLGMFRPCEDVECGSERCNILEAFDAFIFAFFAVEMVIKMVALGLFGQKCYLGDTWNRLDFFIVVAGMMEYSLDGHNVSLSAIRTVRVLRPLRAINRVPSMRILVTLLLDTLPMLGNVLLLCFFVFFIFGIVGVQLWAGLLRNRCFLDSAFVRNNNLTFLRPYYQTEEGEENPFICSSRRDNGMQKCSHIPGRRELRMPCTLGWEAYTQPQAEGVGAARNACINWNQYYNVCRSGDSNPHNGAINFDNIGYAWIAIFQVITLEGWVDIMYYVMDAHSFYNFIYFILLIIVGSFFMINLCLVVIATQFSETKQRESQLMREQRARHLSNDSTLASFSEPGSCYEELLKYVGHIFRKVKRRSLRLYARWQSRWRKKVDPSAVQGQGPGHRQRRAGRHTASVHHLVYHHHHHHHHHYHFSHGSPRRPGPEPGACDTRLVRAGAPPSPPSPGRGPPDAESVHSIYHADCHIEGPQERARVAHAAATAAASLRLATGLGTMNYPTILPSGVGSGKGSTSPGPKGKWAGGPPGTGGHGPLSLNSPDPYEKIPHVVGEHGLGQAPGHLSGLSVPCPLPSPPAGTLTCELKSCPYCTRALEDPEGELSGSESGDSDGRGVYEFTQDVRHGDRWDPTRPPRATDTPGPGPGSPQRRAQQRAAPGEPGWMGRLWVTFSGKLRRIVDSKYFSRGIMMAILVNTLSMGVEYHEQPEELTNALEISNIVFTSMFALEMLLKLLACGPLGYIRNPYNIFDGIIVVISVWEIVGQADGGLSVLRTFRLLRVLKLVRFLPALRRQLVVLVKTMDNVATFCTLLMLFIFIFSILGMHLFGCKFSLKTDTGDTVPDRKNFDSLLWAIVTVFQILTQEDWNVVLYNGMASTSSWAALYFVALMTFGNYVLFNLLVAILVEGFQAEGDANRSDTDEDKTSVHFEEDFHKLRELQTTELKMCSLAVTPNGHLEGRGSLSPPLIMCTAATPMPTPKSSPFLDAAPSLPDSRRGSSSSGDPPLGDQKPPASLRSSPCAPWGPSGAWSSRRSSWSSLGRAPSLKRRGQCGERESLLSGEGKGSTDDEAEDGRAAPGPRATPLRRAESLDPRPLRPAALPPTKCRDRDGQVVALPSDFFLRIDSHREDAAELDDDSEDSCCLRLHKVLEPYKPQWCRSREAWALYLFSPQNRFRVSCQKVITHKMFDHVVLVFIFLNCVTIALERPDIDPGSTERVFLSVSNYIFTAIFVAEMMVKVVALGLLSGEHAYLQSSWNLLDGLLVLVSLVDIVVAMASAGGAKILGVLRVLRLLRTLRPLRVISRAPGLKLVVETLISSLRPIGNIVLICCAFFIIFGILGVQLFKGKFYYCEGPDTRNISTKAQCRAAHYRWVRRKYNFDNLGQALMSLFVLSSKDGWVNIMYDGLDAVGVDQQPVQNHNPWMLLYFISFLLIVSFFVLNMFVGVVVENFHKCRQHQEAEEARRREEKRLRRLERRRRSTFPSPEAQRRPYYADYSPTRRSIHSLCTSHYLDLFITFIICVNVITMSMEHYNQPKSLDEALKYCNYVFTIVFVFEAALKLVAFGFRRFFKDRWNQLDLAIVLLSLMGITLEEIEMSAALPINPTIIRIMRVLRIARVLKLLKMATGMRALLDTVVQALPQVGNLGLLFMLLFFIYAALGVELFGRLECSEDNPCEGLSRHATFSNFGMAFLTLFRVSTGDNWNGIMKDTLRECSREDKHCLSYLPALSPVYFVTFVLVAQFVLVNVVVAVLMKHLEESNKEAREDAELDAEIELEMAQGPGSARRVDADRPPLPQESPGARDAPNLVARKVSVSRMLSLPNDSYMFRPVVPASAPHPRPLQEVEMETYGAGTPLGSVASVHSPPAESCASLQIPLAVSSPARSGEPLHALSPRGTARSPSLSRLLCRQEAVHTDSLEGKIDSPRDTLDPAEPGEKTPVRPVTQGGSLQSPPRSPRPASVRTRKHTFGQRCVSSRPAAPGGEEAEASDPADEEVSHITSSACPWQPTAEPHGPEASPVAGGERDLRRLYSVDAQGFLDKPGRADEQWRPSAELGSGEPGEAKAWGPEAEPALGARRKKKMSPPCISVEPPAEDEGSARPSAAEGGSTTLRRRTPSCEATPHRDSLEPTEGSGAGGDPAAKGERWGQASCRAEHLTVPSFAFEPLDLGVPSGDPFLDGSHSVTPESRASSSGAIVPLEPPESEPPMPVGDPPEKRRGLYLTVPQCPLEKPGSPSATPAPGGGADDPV
# Sequence of Cytochrome P450 2D6 (P10635 whole entry): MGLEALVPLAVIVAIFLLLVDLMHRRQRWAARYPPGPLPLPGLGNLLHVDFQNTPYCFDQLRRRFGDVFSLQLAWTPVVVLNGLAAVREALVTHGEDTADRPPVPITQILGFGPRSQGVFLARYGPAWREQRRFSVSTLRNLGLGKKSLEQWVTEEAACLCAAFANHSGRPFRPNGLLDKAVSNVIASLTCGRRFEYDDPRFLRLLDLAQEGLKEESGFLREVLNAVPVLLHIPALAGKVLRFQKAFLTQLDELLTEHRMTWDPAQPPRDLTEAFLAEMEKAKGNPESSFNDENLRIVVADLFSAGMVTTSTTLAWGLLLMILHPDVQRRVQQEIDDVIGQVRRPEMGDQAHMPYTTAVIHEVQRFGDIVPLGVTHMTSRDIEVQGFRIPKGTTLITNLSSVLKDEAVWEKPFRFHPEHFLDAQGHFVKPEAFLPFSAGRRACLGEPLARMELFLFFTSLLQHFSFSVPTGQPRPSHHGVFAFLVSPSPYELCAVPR
# Sequence of Glyceraldehyde-3-phosphate dehydrogenase (P04406 whole entry): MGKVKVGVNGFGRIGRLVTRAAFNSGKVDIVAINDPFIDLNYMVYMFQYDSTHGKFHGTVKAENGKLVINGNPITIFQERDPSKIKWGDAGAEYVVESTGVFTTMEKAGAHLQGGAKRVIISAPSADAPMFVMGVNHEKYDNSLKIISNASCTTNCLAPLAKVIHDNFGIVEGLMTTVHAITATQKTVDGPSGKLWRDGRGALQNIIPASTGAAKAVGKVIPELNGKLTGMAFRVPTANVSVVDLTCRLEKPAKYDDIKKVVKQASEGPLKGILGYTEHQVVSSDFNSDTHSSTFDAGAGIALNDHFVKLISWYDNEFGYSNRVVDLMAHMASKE
# T4 sequence (P11940 whole entry, the tested form may be a part): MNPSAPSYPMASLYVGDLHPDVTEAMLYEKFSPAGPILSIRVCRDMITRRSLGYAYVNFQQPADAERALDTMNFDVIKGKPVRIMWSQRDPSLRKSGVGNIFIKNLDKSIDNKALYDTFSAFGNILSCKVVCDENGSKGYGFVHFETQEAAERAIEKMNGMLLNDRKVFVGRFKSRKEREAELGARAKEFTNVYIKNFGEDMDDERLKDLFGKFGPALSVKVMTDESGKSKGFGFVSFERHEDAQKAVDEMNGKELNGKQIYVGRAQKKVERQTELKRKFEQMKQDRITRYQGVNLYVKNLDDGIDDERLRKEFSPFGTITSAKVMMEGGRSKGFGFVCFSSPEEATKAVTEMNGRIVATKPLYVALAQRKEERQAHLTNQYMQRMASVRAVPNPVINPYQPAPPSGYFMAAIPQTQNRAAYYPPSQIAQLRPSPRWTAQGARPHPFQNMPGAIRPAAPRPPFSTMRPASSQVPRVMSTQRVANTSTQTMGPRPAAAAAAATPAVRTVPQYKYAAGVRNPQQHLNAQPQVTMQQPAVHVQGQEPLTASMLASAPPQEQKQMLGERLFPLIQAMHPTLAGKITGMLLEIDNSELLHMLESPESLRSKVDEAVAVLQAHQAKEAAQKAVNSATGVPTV
# Sequence of Female germline-specific tumor suppressor gld-1 (Q17339 whole entry, the tested form may be a part): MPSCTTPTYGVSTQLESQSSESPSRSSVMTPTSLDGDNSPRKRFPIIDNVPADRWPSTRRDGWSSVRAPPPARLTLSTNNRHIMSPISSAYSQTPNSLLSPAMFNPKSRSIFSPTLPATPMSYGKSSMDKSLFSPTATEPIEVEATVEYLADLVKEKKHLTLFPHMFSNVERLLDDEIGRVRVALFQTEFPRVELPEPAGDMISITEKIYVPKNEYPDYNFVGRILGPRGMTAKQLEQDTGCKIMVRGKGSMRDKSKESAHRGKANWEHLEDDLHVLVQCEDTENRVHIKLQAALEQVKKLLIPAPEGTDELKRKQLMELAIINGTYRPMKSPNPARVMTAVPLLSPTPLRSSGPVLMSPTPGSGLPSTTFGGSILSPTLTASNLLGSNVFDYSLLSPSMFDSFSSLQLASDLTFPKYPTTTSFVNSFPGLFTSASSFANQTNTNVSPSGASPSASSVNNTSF
# Sequence of Protein Rev (P04618 whole entry): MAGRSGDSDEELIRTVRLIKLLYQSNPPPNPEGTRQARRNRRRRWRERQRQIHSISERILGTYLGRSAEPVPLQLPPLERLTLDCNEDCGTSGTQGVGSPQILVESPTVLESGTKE
# Sequence of G-protein coupled receptor 55 (Q9Y2T6 whole entry): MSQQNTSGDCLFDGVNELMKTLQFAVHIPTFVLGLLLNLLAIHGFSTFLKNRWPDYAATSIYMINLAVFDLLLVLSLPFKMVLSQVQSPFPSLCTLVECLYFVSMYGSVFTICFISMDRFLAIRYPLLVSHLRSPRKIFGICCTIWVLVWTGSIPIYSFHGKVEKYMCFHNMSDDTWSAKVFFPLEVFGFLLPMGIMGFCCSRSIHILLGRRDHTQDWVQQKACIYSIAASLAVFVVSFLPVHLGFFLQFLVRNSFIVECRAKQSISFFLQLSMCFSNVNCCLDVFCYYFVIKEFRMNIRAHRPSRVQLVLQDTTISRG
# Sequence of Serine/threonine-protein phosphatase PP1-alpha catalytic subunit (P62136 whole entry): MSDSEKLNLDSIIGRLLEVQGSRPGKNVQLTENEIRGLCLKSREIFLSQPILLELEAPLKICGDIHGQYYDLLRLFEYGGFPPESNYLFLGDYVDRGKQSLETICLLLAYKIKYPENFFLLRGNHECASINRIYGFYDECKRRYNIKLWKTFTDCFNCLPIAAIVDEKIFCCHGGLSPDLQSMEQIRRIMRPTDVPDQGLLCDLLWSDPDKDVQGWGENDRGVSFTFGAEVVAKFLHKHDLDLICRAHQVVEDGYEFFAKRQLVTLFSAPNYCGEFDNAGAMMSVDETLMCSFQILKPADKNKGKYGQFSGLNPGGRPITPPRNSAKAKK
smiles,measurement,setting,value
CCOC(=O)c1cnc(-n2nc(C)cc2C)nc1NCc1ccccc1,EC50,Streptokinase A,> 150 µM (not active)
same,EC50,[1],> 60 µM (not active)
same,EC50,[2],2.09 µM (active)
same,EC50,[3],8.49 µM (active)
same,IC50,[4],> 67 µM (not active)
same,AC50,INS1,5.4 µM (active)
same,IC50,[5],5.83 µM (active)
same,EC50,Streptococcus,9.69 µM (active)
C/C(=N\O)c1ccc2c3ccccc3n(C)c2c1,EC50,[6],> 50 µM (not active)
Cc1ccsc1/C=N/n1c(S)nnc1-c1ccco1,IC50,[7],1.79 µM (active)
same,IC50,[8],> 100 µM (inactive)
CCc1ccc(Nc2n[n+](-c3ccccc3)c(-c3cc(OC)c(OC)cc3Br)s2)cc1,EC50,[9],21.2 µM (inactive)
COc1cc(C(CC(=O)N2CCCC2)c2c(OC)cc(OC)c3c(-c4ccccc4)cc(=O)oc23)cc(OC)c1OC (configuration not stated),EC50,[9],6.57 µM (active)
CC[C@@]12CCCN3CC[C@@]4(c5ccc(OC)c(O)c5N(C(C)=O)[C@H]4CC1)[C@H]32,AC50,Cytochrome P450 2D6,20 µM (inconclusive)
C=CCNC(=O)CCCOc1cc(C)ccc1C,EC50,[6],> 50 µM (not active)
CCC(=O)N1CCN(c2ccccc2NC(=O)COc2cc(C)ccc2C(C)C)CC1,EC50,[10],2.97 µM (active)
same,IC50,H9c2,> 79 µM (inactive)
CCOC(=O)C1Nc2c(OC)cccc2C2OCCC12 (configuration not stated),IC50,[11],> 100 µM (inactive)
same,IC50,[12],> 100 µM (not active)
same,IC50,[13],> 100 µM (inactive)
same,IC50,[14],> 100 µM (not active)
C=CCCC/C=C(/C)C(OCc1ccc(OC)cc1)C(CC/C=C(\C)C(N)=O)OC (configuration not stated),AC50,Cytochrome P450 2C19,2.51 µM (inconclusive)
same,AC50,Cytochrome P450 2D6,3.16 µM (inconclusive)
COC(=O)c1cc2c(C)cc3ccc(C)cn3c-2c1C(=O)OC,IC50,Protein Rev,12.2 µM (not active)
same,IC50,[15],> 2.21 µM (active)
O=c1[nH]c2cc3ccccc3cc2nc1C(F)(F)F,IC50,Protein Rev,> 75.5 µM (not active)
same,IC50,[16],46.2 µM (inactive)
same,IC50,[15],2.9 µM (active)
same,IC50,[17],> 66 µM (inactive)
CCN(C1CCCCC1)S(=O)(=O)c1ccc(OC)c(C)c1,EC50,[10],3.88 µM (active)
same,EC50,[18],> 50 µM (active)
Cc1cc(/C=c2/sc3nc4ccccc4n3c2=O)c(C)n1-c1ccccn1,EC50,[19],> 300 µM (not active)
same,EC50,[20],< 0.16 µM (active)
same,EC50,cells,0.076 µM (active)
same,EC50,[21],0.092 µM (active)
same,EC50,[22],0.084 µM (active)
same,EC50,[23],< 0.1 µM (active)
same,EC50,[24],> 300 µM (not active)
CCCn1c(=O)nc(NCc2ccc(C)cc2)[nH]c1=O,IC50,[11],> 100 µM (inactive)
same,IC50,[12],> 100 µM (not active)
same,IC50,[13],> 100 µM (inactive)
same,IC50,[14],> 100 µM (not active)
